Data published in patent US20110105477A1, “COMPOSITIONS AND METHODS RELATING TO HIV PROTEASE INHIBITION” (The Regents of the University of Michigan, priority 2007, published 2011).

Target: HIV-1 protease (Human immunodeficiency virus type 1 group M subtype B, UniProt P04585)
Test: HIV protease inhibition assay
Assay type: biochemical
Conditions: not given

SMILES | activity in HIVp inhibition assay (in words)
CC1=CC(C)(C)Nc2ccc(OC(=O)c3ccccc3Br)cc21 [Compound 3] | active

Same assay, conditions: HIVp inhibition

SMILES | IC50
COc1ccc(C(=O)Oc2ccc3c(c2)C(C)=CC(C)(C)N3)cc1 [Compound 2] | 18 µM

Same assay, conditions: remaining HIV-1 protease activity at 150 μM compound

SMILES | Remain Activity
CC1=CC(C)(C)Nc2ccc(OC(=O)c3sc4cc([N+](=O)[O-])ccc4c3Cl)cc21 | 56.93%
CC1=CC(C)(C)Nc2ccc(OC(=O)c3cccnc3)cc21 | 58.86%
COc1cc(OC)cc(C(=O)Oc2ccc3c(c2)C(C)=CC(C)(C)N3)c1 | 59.22%
CC1=CC(C)(C)Nc2ccc(OC(=O)c3ccc4c(c3)OCO4)cc21 | 63.58%
CC1=CC(C)(C)Nc2ccc(OC(=O)c3cccs3)cc21 | 64.08%
CC1=CC(C)(C)Nc2ccc(OC(=O)c3cccc4ccccc34)cc21 | 65.34%
CC1=CC(C)(C)Nc2ccc(OC(=O)c3ccco3)cc21 | 69.67%
CC1=CC(C)(C)Nc2ccc(OC(=O)c3cccc([N+](=O)[O-])c3)cc21 | 73.01%
O=C1c2cccc([N+](=O)[O-])c2C(=O)N1c1ccc2[nH]c(=S)sc2c1 | 36.93%
O=C1[C@H]2CCCC[C@H]2C(=O)N1c1ccc2[nH]c(=S)sc2c1 | 51.9%
O=C(Nc1ccc2[nH]c(=S)sc2c1)c1ccccc1 | 65.14%
Cc1cc(=O)n2nc(NCc3cccs3)nc2[nH]1 | 63.59%
Cc1[nH]c2nc(NCc3cccc(Br)c3)nn2c(=O)c1Cl | 71.2%
Cc1cc(=O)n2nc(N3C(=O)[C@H]4CCCC[C@H]4C3=O)nc2[nH]1 | 67.49%
O=c1c2c([nH]c3nc(COc4ccccc4)nn13)CCC2 | 57.77%
CCOc1ccccc1CNc1nc2[nH]c3c(c(=O)n2n1)CCC3 | 75.44%
O=C(Nc1ccc(F)cc1F)c1cc2n(n1)[C@H](C(F)(F)F)[C@H]1CCCC[C@H]1N2 | 64.91%
CC1=NNc2nc3c(c(=O)n(Cc4ccccc4)c(=O)n3C)n2C1 | 65.08%
CC1=CC(C)(C)Nc2ccc(OC(=O)c3ccccc3Br)cc21 [drawing 433] | 65.33%
